Results as given in patent US20090305259A1, “Early Diagnosis of Congenital Abnormalities in the Offspring of Diabetic Mothers” (YALE UNIVERSITY, priority 2006, published 2009).
“Also recorded” adds a separate entry of the source.

How the values were obtained:
developing conceptuses = conditions: 250 mg/kg prior to mating; fast elimination; cited from earlier work
yolk sac vasculogenesis = assay: Whole conceptus culture: yolk sac vasculogenesis under hyperglycemia; type: cell-based, mouse; conditions: for rescue of hyperglycemia-arrested yolk sac vascular development (arborization): conceptus culture with 20 mM D-glucose plus agent, PECAM-1 staining
Protocol: Timed pregnant mice are used to harvest 7.5 and 9.5 days post conception (dpc) conceptuses from which yolk sac and hearts are dissected. The atrioventricular canals are isolated for subsequent culture and analysis of the epithelial to mesenchymal transformation that occurs in the formation of the endocardial cushion.
(§1) Conceptuses are cultured for 48 hrs in the presence of rat serum or rat serum+20 mM D-Glucose, or rat serum+20 mM D-Glucose+rVEGF or NO donor or 20 mM mannitol for 48 hrs. At 8.5 dpc the yolk sacs are harvested and analyzed using LC-MS and LC-MS-MS methods as well as by traditional cell and molecular biological methods. At 9.5 dpc atrioventricular (AV) canals are harvested from the conceptuses and cultured for 48 to 72 hrs on collagen gels to allow epithelial-mesenchymal transformation (EMT). The AV canal cultures are analyzed by double or triple label standard and confocal immunofluorescence microscopy, laser dissection capture microscopy followed by Western blotting for protein determination, characterization and localization. The effects of exogenous VEGF-A (1, 10 & 20 ng/ml), Pro- and mature BDNF (1, 25 & 50 ng/ml), NO donor (Noc-18) TIMP-1 and TIMP-2 (1, 25 & 50 ng/ml) on EMT and protein expression, post-translational modification and degradation are assessed.
Using this embryo culture system, groups of ten 7.5 dpc conceptuses were cultured in normoglycemic conditions (5.0 mM D-glucose [control]), hyperglycemic conditions (20 mM D-glucose [HG]), HG+10 pg/ml VEGF A165 (HG+rVEGF) and HG+a slow release NO donor (HG+Noc-18) for 24 hrs. The conceptuses were harvested at 8.5 dpc when their yolk sacs were at the primary capillary plexus stage and beginning to undergo vascular remodeling. Lysates were then prepared for SDS-PAGE, Silver Staining and MS analysis. FIG. 4A depicts PECAM-1 staining of the capillary plexas at 8.5 dpc and illustrates the non-descript vascular plexus observable at this stage of development. […] This is in contrast to LC-MS and LC-MS-MS analyses of these samples (see below).

Wnt16 = assay: Western blot of Wnt16 in yolk sacs across treatment groups; type: cell-based, mouse; conditions: yolk sac / whole conceptus culture, 20 mM D-glucose plus agent
Protocol: as §1
(§2) Further, several of these proteins were validated in conceptus culture assays prior to and following VEGF and NO donor rescues using Western blotting, histological and immunolocalization analyses. […] Further, sequestration of Wnt16 (FIG. 11), ADAM 15 (FIG. 12), and NOGO A (FIG. 13) by antibodies directed against them abrogated EMT in cardiac AVC cushion explant cultures. […]

ADAM 15 = assay: Western blot of ADAM 15 in yolk sacs across treatment groups; type: cell-based, mouse; conditions: yolk sac / whole conceptus culture, 20 mM D-glucose plus agent
Protocol: as §1, §2

NOGO A = assay: Western blot of NOGO A in yolk sacs across treatment groups; type: cell-based, mouse; conditions: yolk sac culture, hyperglycemia plus agent, listed as NO donor
Protocol: as §1, §2

cardiac EMT = conditions: cardiac A-V canal and outflow tract cultures, 20 mM D-glucose; cited from earlier work

## CN(N=O)C(=O)N[C@H]1C(O)O[C@H](CO)[C@@H](O)[C@@H]1O (mixture of isomers) [Streptozotocin]
Developing conceptuses
  toxic effect on the developing conceptuses: no toxic effect

## NCCN(CCN)/[N+]([O-])=N/O [NOC-18]
Yolk sac vasculogenesis
  rescue of hyperglycemia-arrested yolk sac vascular development (arborization): rescue of the hyperglycemic arrest of vascular development; also recorded: restore normal vascular morphology; also recorded: rescue of yolk Sac vascular development
Yolk sac vasculogenesis; listed as NO donor
  rescue of hyperglycemia-arrested yolk sac vascular development (arborization): reversed
Yolk sac vasculogenesis; listed as NOD
  rescue of hyperglycemia-arrested yolk sac vascular development (arborization): restores vascular arborization
Wnt16
  Wnt16 expression level (upregulated by hyperglycemia) after treatment: down-regulated to near normoglycemic levels
Wnt16; listed as NO donor
  Wnt16 expression level (upregulated by hyperglycemia) after treatment: rescued; also recorded: returned to normal levels
ADAM 15
  ADAM 15 expression level (downregulated by hyperglycemia) after treatment: up-regulated to near normoglycemic levels
ADAM 15; listed as NO donor
  ADAM 15 expression level (downregulated by hyperglycemia) after treatment: rescued; also recorded: returned to normal levels
NOGO A
  NOGO A expression level (downregulated by hyperglycemia) after treatment: rescued; also recorded: returned to normal levels

## OC[C@H]1O[C@H](O)[C@H](O)[C@@H](O)[C@@H]1O [alpha-D-glucose]
Yolk sac vasculogenesis; transient (as little as 3 hr) exposure, 20 mM alpha-D-glucose
  effect on yolk sac vasculogenesis: arrest yolk sac vasculogenesis at the primary capillary plexus stage
Cardiac EMT
  effect on cardiac cushion formation: arrested cushion formation
